Activity data for 1 molecule are collected here from ChEMBL document CHEMBL1136865, “Effects of detergents on the West Nile virus protease activity” (Bioorg Med Chem, 2009).

Assay [1] concerns West Nile virus. Put plainly: Increase in West Nile virus NS3 protease activity at =>0.01 to 0.1 % by spectrofluorimetry using Boc-Gly-Lys-Arg-AMC substrate relative to control.
Assay [2] relates to West Nile virus. Briefly: Increase in West Nile virus NS3 protease activity up to 0.5% by spectrofluorimetry using Boc-Gly-Lys-Arg-AMC substrate relative to control.

Active and inactive are the calls of the source. No cut-off for these calls is given here.

For `C[C@H](CCC(=O)NCCC[N+](C)(C)CCCS(=O)(=O)[O-])[C@H]1CC[C@H]2[C@@H]3[C@H](O)C[C@@H]4C[C@H](O)CC[C@]4(C)[C@H]3C[C@H](O)[C@]12C`, the outcome in the assay on West Nile virus [1] and in the assay with West Nile virus [2] was inactive.
